# Experimental data taken from patent US5521184A, “Pyrimidine derivatives and processes for the preparation thereof” (Ciba-Geigy Corporation, priority 1992, dated 1996).
# pIC50: −log10 of the molar value.
# Assays:
# [1] = system: human T24 bladder carcinoma; assay: tumour-inhibiting activity in nude mice with transplanted human T24 bladder carcinoma; type: in vivo, female Balb/c nude mice; details: perorally or intraperitoneally once daily for 15 days
# Description: The tumour-inhibiting activity is determined using female Balb/c nude mice in which human T24 bladder carcinoma has been transplanted. On day 0, a c. 25 mg piece of solid tumour is transplanted subcutaneously under peroral "forene" narcosis on the left flank and the small incision wound is closed with a suture clip. On day 6 after the tumour transplantation, the mice are randomised in groups of 6 animals and treatment is commenced. The treatment is carded out for 15 days by administering a compound of formula I, e.g. N-[3-(1,1,2,2-Tetrafluoroethoxy)phenyl]-4-(4-pyridyl)-2-pyrimidine-amine, in dimethyl sulfoxide/Tween 80/sodium chloride solution in the different doses perorally or intraperitoneally once daily. The tumours are measured twice weekly with a sliding caliper and the tumour volume determined.
# [2] = system: p34^cdc2 /cyclin B^cdc13 kinase; assay: p34cdc2/cyclin Bcdc13 kinase assay with histone H1 as substrate; type: biochemical, starfish
# Description: Starfish oocytes are induced to enter M phase with 10 μM 1-methyladenine, frozen in liquid nitrogen and stored at -80° C. When required the oocytes are homogenized and centrifuged as described by D. Arion et al., Cell 55, 371-378 (1988) and V. Rialet und L. Meijer, Anticancer Res. 11, 1581-1590 (1991). For purification of p34^cdc2 /cyclin B^cdc13 kinase, the supernatant of oocytes is added to p9^CKShs -sepharose beads prepared from recombinant human p9^CKShsas described by L. Azzi et al., Eur. J. Biochem. 203, 353-360 (1992). After 30 minutes at 4° C. under constant rotation, the beads are extensively washed and active p34^cdc2 /cyclin B^cdc13 kinase is eluted with free p9^CKShs (3 mg/ml). The eluted kinase is assayed using histone H1 as a substrate as described by L. Meijer et al., EMBO J. 8, 2275-2282 (1989) und EMBO J. 10, 1545-1554 (1991). The reaction mixture contains 10 μl p34^cdc2 /cyclin B^cdc13 kinase, 5 μl histone H1, type III-S (5 mg/ml) and 10 μl buffer C. The reaction is started by addition of 5 μl [γ-^32 P]ATP (75 μM, 8800 cpm/pmole) and incubated for 10 minutes at 30° C. The assay is terminated by transferring 25 μl on pieces of Whatman P81 phosphocellulose paper. After 20 seconds the papers are washed 6 times with each 10 ml of 1% phosphoric acid for 5 minutes, dried and counted in a scintillation counter.
# [3] = biological target: EGF-receptor-specific protein tyrosine kinase (EGF-R-PTK) (Homo sapiens, UniProt P00533); assay: inhibition of the EGF-receptor-specific protein tyrosine kinase (EGF-R-PTK); type: biochemical
# From the text: J. Biochem. 207, 265-275 (1992).
# Chain of EGF-receptor-specific protein tyrosine kinase (EGF-R-PTK) (P00533 669-1210 limits assumed): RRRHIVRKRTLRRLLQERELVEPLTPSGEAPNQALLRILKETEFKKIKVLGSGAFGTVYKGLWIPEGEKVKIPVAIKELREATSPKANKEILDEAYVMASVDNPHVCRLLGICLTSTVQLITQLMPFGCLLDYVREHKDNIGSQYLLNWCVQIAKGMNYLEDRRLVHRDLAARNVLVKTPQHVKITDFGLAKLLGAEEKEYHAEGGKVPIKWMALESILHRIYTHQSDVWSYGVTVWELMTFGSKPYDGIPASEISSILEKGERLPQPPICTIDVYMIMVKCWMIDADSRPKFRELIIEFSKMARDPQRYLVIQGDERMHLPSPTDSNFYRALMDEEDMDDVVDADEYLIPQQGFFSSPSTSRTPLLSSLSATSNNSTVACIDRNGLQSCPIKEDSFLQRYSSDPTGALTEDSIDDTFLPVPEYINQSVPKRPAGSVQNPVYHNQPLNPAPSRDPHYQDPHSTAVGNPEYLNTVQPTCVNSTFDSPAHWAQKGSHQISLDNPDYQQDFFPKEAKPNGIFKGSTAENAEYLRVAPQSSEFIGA
inhibition of p34cdc2/cyclin Bcdc13 kinase [2],pIC50 ([2]; histone H1 substrate),inhibition of the tyrosine kinase activity of the receptor for EGF [3],Structure (SMILES),average tumour volume compared with the untreated controls [1]
inhibit,7.10,–,"FC(F)C(F)(F)Oc1cccc(Nc2nccc(-c3ccncc3)n2)c1 [Example 32, N-[3-(1,1,2,2-tetrafluoroethoxy)phenyl]-4-(4-pyridyl)-2-pyrimidine-amine]",marked reduction in the average tumour volume
–,–,inhibit the tyrosine kinase activity,"FC(F)C(F)(F)Oc1cccc(Nc2nccc(-c3c[nH]c4ccccc34)n2)c1 [Example 33, N-[3-(1,1,2,2-tetrafluoroethoxy)phenyl]-4-(3-indolyl)-2-pyrimidine-amine]",–
